Measured values published in patent publication US12486253B2, “Therapeutics for the degradation of mutant BRAF” (C4 THERAPEUTICS, INC., priority 2021, dated 2025).
“Also recorded” adds a separate entry of the source.

Assays:
HCT-116 = HCT-116 cell growth; assay type: cell-based; conditions: HCT-116, mutant KRAS driven, WT BRAF
SALL4 = target: T1, SALL4 (Homo sapiens, UniProt Q9UJQ4); assay: SALL4 protein levels after treatment; assay type: cell-based; conditions: various concentrations
T1 construct: endogenously expressing SALL4 with HiBiT fusion tag via CRISPR; endogenous in cells; host or cells: KELLY.2 (from KELLY, DSMZ ACC-No. 355)
T1 sequence (Q9UJQ4 whole entry, the tested form may be a part): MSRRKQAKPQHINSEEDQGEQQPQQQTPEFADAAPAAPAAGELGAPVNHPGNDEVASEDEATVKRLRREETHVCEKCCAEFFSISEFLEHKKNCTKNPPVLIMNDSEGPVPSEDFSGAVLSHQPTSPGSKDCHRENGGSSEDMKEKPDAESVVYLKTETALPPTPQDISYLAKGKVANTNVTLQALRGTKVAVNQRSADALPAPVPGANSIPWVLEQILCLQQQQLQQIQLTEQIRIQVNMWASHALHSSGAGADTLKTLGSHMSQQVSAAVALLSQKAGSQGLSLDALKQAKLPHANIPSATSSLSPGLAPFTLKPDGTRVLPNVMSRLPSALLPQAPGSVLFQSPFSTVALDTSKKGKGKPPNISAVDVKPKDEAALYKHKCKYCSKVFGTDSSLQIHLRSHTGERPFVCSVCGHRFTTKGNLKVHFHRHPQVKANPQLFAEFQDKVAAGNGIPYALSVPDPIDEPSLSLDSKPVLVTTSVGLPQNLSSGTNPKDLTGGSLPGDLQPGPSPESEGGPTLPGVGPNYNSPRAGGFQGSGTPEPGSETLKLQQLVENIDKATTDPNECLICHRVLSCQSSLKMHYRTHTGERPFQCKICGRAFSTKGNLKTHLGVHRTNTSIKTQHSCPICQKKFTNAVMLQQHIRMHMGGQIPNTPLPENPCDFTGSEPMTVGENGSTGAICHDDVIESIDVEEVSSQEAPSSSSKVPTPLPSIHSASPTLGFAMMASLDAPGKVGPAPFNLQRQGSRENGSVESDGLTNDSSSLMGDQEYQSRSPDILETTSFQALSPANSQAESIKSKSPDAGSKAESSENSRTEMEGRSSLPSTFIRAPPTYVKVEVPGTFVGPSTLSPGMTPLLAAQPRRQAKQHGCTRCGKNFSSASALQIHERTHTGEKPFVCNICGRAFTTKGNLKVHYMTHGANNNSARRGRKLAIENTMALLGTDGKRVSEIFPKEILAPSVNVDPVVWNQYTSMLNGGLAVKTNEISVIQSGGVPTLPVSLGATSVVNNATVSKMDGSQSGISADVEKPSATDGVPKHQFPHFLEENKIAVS

BRAF V600E = BRAF V600E (Homo sapiens, UniProt P15056, V600E); assay: Western blot of engineered HEK-293T cells expressing BRAF V600E; assay type: cell-based; conditions: lentivirus expression
Sequence of BRAF V600E (P15056 whole entry V600E): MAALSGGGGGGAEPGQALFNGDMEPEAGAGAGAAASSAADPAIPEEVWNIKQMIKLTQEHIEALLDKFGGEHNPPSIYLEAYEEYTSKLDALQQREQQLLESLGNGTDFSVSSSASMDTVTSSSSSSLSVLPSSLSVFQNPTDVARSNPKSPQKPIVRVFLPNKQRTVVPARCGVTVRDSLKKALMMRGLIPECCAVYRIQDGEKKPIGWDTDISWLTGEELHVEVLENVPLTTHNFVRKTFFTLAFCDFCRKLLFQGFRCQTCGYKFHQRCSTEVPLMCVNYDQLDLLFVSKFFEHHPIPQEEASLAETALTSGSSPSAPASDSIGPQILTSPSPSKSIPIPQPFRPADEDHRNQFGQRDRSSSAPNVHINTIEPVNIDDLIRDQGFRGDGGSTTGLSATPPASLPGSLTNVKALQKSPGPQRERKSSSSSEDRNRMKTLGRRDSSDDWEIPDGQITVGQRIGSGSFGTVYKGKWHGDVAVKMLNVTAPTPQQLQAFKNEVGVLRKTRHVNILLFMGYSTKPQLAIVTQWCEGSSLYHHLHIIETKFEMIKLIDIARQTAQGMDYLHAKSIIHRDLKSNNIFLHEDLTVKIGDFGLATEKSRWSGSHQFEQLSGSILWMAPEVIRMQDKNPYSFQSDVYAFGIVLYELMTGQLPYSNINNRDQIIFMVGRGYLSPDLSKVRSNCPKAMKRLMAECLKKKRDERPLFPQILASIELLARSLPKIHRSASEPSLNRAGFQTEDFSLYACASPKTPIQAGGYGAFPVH

[1] = target: T2, BRAF class II mutant G469A (Homo sapiens, UniProt P15056, G469A); assay: Western blot of engineered HEK-293T cells expressing class II mutant G469A; assay type: cell-based; conditions: lentivirus expression
T2 construct: host or cells: HEK-293T, lentiviral expression
T2 sequence (P15056 whole entry G469A): as the sequence (P15056 whole entry V600E) above, with G469A, E600V counted along it

BRAF (wild type) = target: T3, BRAF (wild type) (Homo sapiens, UniProt P15056); assay: Global proteomics profiling, JURKAT cells; assay type: cell-based; conditions: 300 nM, 24 hours
T3 construct: host or cells: JURKAT
T3 sequence (P15056 whole entry): as the sequence (P15056 whole entry V600E) above, with E600V counted along it
Experimental: (§1) Each cell line was treated in duplicate with either DMSO or Compound 157 (final concentration 300 nM) for 24 hours in an incubator at 37° C. with 5% CO2. After the 24-hour incubation, cells were harvested, washed twice with PBS, and snap frozen in liquid nitrogen. Samples were re-suspended in lysis buffer [8 M urea, 50 mM HEPES (pH 8.5), 50 mM NaCl, 1× protease inhibitor cocktail] and lysed by sonication at 4° C. with 85% amplitude in a pulse setting with 30 seconds on and 30 seconds off for a total sonication time of 5 minutes. Lysates were centrifuged at maximum speed for 10 minutes at 4° C. and the supernatant collected, reduced for 1 hour at room temperature with 5 mM TCEP, and the cysteine residues were then alkylated with 15 mM iodoacetamide (room temperature, in dark, 30 minutes). Protein content was extracted by methanol-chloroform precipitation and subsequent ice-cold acetone washes. Protein pellets were resuspended in 8 M urea, 50 mM HEPES (pH 8.5) buffer and protein concentrations were measured by BCA assay. […]
(§2) For peptide tandem mass tag (TMT) labeling, 100 μg of peptides per sample was prepared at […] concentration in 200 mM HEPES (pH 8.5), 30% acetonitrile (ACN) and each the specific TMT reagent. […] TMT reporter ion intensities were quantified by extracting the signal-to-noise ratio for each. […]

A375 tumors = assay: In vivo efficacy in A375 xenograft tumors; set-up: species or system BALB/c nude mice; conditions: mice
Experimental: The efficacy study was conducted in female BALB/c nude mice bearing A375 tumors. Female BALB/c nude mice were inoculated subcutaneously in the right flank with A375 tumor cells (5×10^6) in 0.2 mL of PBS supplemented with Matrigel (at a 1:1 ratio) for tumor development. Tumor volume was measured twice weekly in two dimensions using calipers, and volume (mm^3) was calculated using the formula: V=0.5 a×b^2 where a and b are the long and short diameters of the tumor in mm, respectively. Once the tumors reached an average tumor volume of 246 mm^3 (16 days after implantation), the animals were divided randomly into groups of 6, stratified to result in about equal average tumor sizes in each treatment group and treatment began on Day 0.
All agents were administered to mice bearing A375 tumors orally (PO), daily (QD; encorafenib), twice a day (BID) or three times a day (TID) for Compound 157, for 21 or 35 days. encorafenib was dosed at 35 mg/kg and Compound 157 at 0.1, 0.3, 1, 3 or 10 mg/kg twice a day or 2 mg/kg three times a day. Compound 157 was formulated in 20% PEG400+80% (25% SBECD). Body weight and MTV were measured on a 2× weekly schedule and reported as Mean±SEM.

ARAF = ARAF (Homo sapiens, UniProt P10398); assay: Global proteomics profiling, JURKAT cells; assay type: cell-based; set-up: endogenous in cells; host or cells: JURKAT, ATCC TIB-152 (A11.2); conditions: 300 nM, 24 hours
Sequence of ARAF (P10398 whole entry): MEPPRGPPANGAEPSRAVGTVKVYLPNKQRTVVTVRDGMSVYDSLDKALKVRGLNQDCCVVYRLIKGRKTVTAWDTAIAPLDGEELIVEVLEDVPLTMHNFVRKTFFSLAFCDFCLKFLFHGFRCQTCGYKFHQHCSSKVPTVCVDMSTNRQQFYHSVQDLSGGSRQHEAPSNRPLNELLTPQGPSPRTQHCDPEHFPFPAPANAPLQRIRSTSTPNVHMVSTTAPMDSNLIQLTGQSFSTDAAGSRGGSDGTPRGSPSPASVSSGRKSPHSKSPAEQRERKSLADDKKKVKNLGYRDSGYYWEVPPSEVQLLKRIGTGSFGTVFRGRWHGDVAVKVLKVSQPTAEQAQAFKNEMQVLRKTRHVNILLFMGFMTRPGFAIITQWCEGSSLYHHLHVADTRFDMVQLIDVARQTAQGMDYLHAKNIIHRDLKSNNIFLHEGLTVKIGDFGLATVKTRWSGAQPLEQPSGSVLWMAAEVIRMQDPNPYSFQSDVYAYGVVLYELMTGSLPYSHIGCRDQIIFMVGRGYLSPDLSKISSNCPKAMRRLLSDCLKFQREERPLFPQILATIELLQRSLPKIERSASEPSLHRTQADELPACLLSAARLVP
Experimental: as §1, §2

RAF1 (a.k.a CRAF) = RAF1 (a.k.a CRAF) (Homo sapiens, UniProt P04049); assay: Global proteomics profiling, JURKAT cells; assay type: cell-based; set-up: endogenous in cells; host or cells: JURKAT, ATCC TIB-152 (A12.2); conditions: 300 nM, 24 hours
Sequence of RAF1 (a.k.a CRAF) (P04049 whole entry): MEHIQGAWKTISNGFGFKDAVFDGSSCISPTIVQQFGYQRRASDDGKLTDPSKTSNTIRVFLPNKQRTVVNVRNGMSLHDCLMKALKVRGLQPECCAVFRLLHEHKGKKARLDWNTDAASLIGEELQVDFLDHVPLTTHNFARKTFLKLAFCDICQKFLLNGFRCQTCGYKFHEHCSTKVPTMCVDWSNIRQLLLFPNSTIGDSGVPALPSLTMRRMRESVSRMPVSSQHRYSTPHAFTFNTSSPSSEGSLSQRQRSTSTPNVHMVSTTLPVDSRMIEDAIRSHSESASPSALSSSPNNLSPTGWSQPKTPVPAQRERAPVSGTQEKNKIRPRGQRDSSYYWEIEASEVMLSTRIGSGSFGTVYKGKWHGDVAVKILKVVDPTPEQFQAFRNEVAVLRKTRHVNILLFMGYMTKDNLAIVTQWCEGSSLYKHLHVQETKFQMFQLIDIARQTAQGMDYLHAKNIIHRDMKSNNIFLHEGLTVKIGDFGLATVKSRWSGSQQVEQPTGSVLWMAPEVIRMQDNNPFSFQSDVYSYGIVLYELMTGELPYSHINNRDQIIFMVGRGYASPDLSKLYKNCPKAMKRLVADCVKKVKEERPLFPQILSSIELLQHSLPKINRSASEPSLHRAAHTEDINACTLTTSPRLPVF
Experimental: as §1, §2

With `CCN(C)S(=O)(=O)Nc1ccc(F)c(Oc2ccc3ncn([C@H]4COC5(CCN(C(=O)CC6(O)CCN(c7cc8c(cc7F)c(N7CCC(=O)NC7=O)nn8C)CC6)CC5)C4)c(=O)c3c2)c1C#N` [Compound 157, (3R)-3-[6-[2-cyano-3-[[ethyl(methyl)sulfamoyl]amino]-6-fluorophenoxy]-4-oxoquinazolin-3-yl]-8-[2-[1-[3-(2,4-dioxo-1,3-diazinan-1-yl)-5-fluoro-1-methylindazol-6-yl]-4-hydroxypiperidin-4-yl]acetyl]-1-oxa-8-azaspiro[4.5]decane] the “effect on cell growth” value (HCT-116) was “no effect; also recorded: no impact on cell growth”, the SALL4 protein levels (SALL4) was “steady” and the “degradation of BRAF V600E” value (BRAF V600E) was “capable of degrading”. For the same compound, the “degradation of class II mutant G469A” value [1] was “capable of degrading”, the “BRAF protein level change” value (BRAF (wild type)) was “unchanged” and the “Tumor growth compared to vehicle-treated tumors” value (A375 tumors; 1 mg/kg PO BID) was “potent tumor growth inhibition”. For the same compound, the “Tumor growth compared to vehicle-treated tumors” value (A375 tumors; 2 mg/kg PO TID) was “potent tumor growth inhibition”, the “Tumor growth compared to vehicle-treated tumors” value (A375 tumors; 3 mg/kg PO BID) was “potent tumor growth inhibition” and the “Tumor growth compared to vehicle-treated tumors” value (A375 tumors; 10 mg/kg PO BID) was “robust tumor growth regression”. The “ARAF protein level change” value (ARAF) was “unchanged” and the “RAF1 (CRAF) protein level change” value (RAF1 (a.k.a CRAF)) was “unchanged”.
